As usually defined, the IC50 is the concentration needed to halve the response being measured.

Where two headings read alike, the source gives them in different places. Some results are limits rather than exact numbers.

This passage reports IC50 results from patent EP4644396A1 (Visionpharma (Nantong) Co., Ltd, priority 2022, dated 2024).

One test addresses T1, human TLR8 (Homo sapiens, UniProt Q9NR97).
T1 construct: expressed in transfected cells
T1 sequence (Q9NR97 27-1041): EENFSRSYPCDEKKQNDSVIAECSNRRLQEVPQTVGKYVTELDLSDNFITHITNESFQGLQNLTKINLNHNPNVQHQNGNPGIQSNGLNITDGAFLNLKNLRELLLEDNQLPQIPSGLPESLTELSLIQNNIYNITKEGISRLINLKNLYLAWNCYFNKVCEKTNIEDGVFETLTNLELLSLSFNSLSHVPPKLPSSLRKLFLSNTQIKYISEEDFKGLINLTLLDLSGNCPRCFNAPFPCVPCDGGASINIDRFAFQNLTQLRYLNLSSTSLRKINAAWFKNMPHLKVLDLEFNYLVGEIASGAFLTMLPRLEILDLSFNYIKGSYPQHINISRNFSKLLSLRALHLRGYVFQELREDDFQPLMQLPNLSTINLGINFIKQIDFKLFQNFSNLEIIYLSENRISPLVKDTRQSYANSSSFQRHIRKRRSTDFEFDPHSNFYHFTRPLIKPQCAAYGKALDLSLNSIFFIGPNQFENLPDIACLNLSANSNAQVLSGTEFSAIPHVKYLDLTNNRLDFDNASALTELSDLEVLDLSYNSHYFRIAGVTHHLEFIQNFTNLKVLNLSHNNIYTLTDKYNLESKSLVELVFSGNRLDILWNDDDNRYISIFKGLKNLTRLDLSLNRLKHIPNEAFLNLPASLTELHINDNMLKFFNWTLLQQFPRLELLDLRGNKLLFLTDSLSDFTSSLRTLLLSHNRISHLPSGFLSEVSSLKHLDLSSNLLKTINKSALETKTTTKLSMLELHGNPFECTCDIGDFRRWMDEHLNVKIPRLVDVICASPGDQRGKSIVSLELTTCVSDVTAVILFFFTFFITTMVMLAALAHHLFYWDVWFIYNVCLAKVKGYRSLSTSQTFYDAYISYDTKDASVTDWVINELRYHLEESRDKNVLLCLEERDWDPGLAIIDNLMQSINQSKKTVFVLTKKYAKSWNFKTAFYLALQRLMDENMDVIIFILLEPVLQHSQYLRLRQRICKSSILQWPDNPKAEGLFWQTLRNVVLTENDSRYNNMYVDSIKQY
Put plainly: HEK-Blue hTLR8 SEAP reporter gene inhibition assay. It counts as cell-based. As to conditions: hTLR8 HEK-Blue cells, TLR8 ligand 10 µM, 20 hours, SEAP by Quanti-blue; class symbols; read-out: HEK-Blue hTLR8 IC50. The procedure: (§1) HEK-Blue cells with stable expression of human TLR7 or TLR8 were used in the evaluation of inhibitory activity of compounds in the present invention against TLR7 or TLR8, by using its ability to induce the SEAP reporting gene under the control of the fusion of IFN-β minimum promoters into five NF-κB and ap-1 binding sites, as follows: hTLR7 HEK-Blue cells (Invivogen, 80, 000 cells per well) or hTLR8 HEK-Blue cells (60, 000 cells per well) were added to a 96-well cell culture plate. A solution of the testing compounds were added to each well, with the final concentration of tested compounds in the medium ranged from 0.001 to 36 µM and the culture was incubated for 15 minutes. M5049 was used as positive controls in the testing.
(§2) Then a TLR7 ligand (Gardiquimod, purchased from MedChemExpress, with final concentration of ligand in cell culture medium kept at 10 µM) or a TLR8 ligand (purchased from MedChemExpress with final concentration in cell culture media at 10 µM) and the culture was incubated for 20 hours. According to the manufacturer's instructions, a HEK-Blue reagent Quanti-blue (Invivogen) was used to detect the SEAP levels in cell cultures. The half […] concentration or IC50 was calculated by using GraphPad Prism. […] Table 1: Activities of examples in this invention to hTLR7/8 in HEK-Blue Cells
In general terms: A reporter such as luciferase makes a cellular process visible.

The next test concerns the target T2, human TLR7 (Homo sapiens, UniProt Q9NYK1).
T2 sequence (Q9NYK1 27-1049): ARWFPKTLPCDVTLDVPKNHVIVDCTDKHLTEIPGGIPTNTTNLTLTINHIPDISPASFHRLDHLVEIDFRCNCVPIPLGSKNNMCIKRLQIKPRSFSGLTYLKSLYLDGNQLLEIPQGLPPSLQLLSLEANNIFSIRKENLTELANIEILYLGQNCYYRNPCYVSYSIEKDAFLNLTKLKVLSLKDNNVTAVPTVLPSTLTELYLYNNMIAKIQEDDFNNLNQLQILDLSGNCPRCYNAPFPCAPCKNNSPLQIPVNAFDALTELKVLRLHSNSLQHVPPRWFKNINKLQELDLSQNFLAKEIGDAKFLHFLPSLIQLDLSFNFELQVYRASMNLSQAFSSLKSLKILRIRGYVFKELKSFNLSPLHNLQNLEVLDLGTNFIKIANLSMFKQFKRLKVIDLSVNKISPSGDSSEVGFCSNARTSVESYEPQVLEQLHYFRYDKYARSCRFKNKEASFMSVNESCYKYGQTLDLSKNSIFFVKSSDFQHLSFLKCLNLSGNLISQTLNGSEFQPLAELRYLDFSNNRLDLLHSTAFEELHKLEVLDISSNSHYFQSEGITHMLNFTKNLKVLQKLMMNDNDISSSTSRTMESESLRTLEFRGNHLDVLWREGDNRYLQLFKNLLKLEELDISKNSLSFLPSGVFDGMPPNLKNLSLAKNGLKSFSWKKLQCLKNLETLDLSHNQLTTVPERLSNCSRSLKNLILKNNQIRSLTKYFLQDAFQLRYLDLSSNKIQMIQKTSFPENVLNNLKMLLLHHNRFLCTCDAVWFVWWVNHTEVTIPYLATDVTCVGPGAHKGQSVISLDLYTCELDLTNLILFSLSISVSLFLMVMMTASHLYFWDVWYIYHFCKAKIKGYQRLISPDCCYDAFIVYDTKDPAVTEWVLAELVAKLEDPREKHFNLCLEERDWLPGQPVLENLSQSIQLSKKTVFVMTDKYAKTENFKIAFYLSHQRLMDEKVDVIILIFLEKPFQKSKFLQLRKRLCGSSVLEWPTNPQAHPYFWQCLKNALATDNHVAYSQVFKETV
Put plainly: HEK-Blue hTLR7 SEAP reporter gene inhibition assay. It counts as cell-based. The procedure: as §1, §2

Setting [1] is: hTLR7 HEK-Blue cells, TLR7 ligand Gardiquimod 10 µM, 20 hours, SEAP by Quanti-blue, class symbols, read-out: HEK-Blue hTLR7 IC50.

In the case of “3-((4R,9S)-2-(7-cyano-3-fluoropyrazolo[1,5-a]pyridin-4-yl)-4,9-dimethyl-1,2,3,4,9,10-hexahydropyrido[3',4':3,4]pyrazolo[1,5-a]pyrazin-8(7H)-yl)cyclobutane-1-carboxamide [Example I-164]”, the half-maximal inhibitory concentration (IC50) at human TLR8 is above 100 nM; on human TLR7 (setting [1]), below 0.05 µM.

For “3-Fluoro-4-((4R,9S)-8-(2-((R)-3-fluoropyrrolidin-1-yl)-2-oxoethyl)-4,9-dimethyl-3,4,7,8,9,10-hexahydropyrido[3',4':3,4]pyrazolo[1,5-a]pyrazin-2(1H)-yl)pyrazolo[1,5-a]pyridine-7-carbonitrile [Example I-149]”, the values for the IC50 on human TLR8 and on human TLR7 (setting [1]) were above 100 nM and below 0.05 µM, respectively.

Regarding “3-Fluoro-4-((4R,9S)-8-(2-((S)-3-fluoropyrrolidin-1-yl)-2-oxoethyl)-4,9-dimethyl-3,4,7,8,9,10-hexahydropyrido[3',4':3,4]pyrazolo[1,5-a]pyrazin-2(1H)-yl)pyrazolo[1,5-a]pyridine-7-carbonitrile [Example I-153]”, the values for the IC50 at human TLR8 and at human TLR7 (setting [1]) were above 100 nM and below 0.05 µM, respectively.

As for “4-((4R,9S)-4,9-dimethyl-8-(2-(4-methylpiperazin-1-yl)-2-oxoethyl)-3,4,7,8,9,10-hexahydropyrido[3',4':3,4]pyrazolo[1,5-a]pyrazin-2(1H)-yl)-3-fluoropyrazolo[1,5-a]pyridine-7-carbonitrile [Example I-128]”, the IC50 was below 100 nM at human TLR8 and below 0.05 µM at human TLR7 (setting [1]).

For “4-((4R,9S)-8-(D-prolyl)-4,9-dimethyl-3,4,7,8,9,10-hexahydropyrido [3',4':3,4] pyrazolo [1,5-a]pyrazin-2(1H)-yl)-3-fluoropyrazolo[1,5-a]pyridine-7-carbonitrile [Example I-120]”, the IC50 on human TLR8 was below 100 nM; at human TLR7 (setting [1]) it was above 0.05 µM.

As to “4-((4R,9S)-8-(cyanomethyl)-4,9-dimethyl-3,4,7,8,9,10-hexahydropyrido[3',4':3,4] pyrazolo[1,5-a]pyrazin-2(1H)-yl)-3-fluoropyrazolo[1,5-a]pyridine-7-carbonitrile [Example I-124]”, the IC50 is below 100 nM at human TLR8 and below 0.05 µM on human TLR7 (setting [1]).

As to `CC1Cc2nn3c(c2CN1)CN(c1ccc(C#N)n2ncc(F)c12)C[C@H]3C` (single isomer, unassigned) [Example I-11a], the IC50 at human TLR8 was below 100 nM; at human TLR7 (setting [1]) it was below 0.05 µM.

For `CC1Cc2nn3c(c2CN1)CN(c1ccc(C#N)n2ncc(F)c12)C[C@H]3C` (single isomer, unassigned) [Example I-11b], the IC50 on human TLR8 is below 100 nM; at human TLR7 (setting [1]) it was below 0.05 µM.

Consider `C[C@@H]1CN(c2ccc(C#N)n3ncc(F)c23)Cc2c3c(nn21)CC(N)CC3` (single isomer, unassigned) [Example I-20a], for which the IC50 at human TLR8 is below 100 nM; on human TLR7 (setting [1]) it was below 0.05 µM.

As for `C[C@@H]1CN(c2ccc(C#N)n3ncc(F)c23)Cc2c3c(nn21)CC(N)CC3` (single isomer, unassigned) [Example I-20b], the half-inhibitory concentration (IC50) at human TLR8 is below 100 nM; at human TLR7 (setting [1]), below 0.05 µM.

Regarding `CC1Cc2c(nn3c2CN(c2ccc(C#N)n4ncc(F)c24)C[C@H]3C)C(C)N1` (single isomer, unassigned) [Example I-59b], the figures for the half-maximal inhibitory concentration (IC50) at human TLR8 and at human TLR7 (setting [1]) were below 100 nM and below 0.05 µM, respectively.

For the molecule `C[C@@H]1CN(c2ccc(C#N)n3ncc(F)c23)Cc2c3c(nn21)CC(C)(N)CC3` (single isomer, unassigned) [Example I-71a], the IC50 was below 100 nM at human TLR8 and below 0.05 µM on human TLR7 (setting [1]).

In the case of `C[C@@H]1CN(c2ccc(C#N)n3ncc(F)c23)Cc2c3c(nn21)CC(C)(N)CC3` (single isomer, unassigned) [Example I-71b], the results for the IC50 on human TLR8 and on human TLR7 (setting [1]) were below 100 nM and above 0.05 µM, respectively.

As to `C[C@@H]1CN(c2ccc(C#N)n3ncc(F)c23)Cc2c3c(nn21)CCC(C)(N)C3` (single isomer, unassigned) [Example I-80a], the results for the 50% inhibitory concentration (IC50) on human TLR8 and on human TLR7 (setting [1]) were above 100 nM and above 0.05 µM, respectively.

Turning to `C[C@@H]1CN(c2ccc(C#N)n3ncc(F)c23)Cc2c3c(nn21)CCC(C)(N)C3` (single isomer, unassigned) [Example I-80b], the IC50 at human TLR8 was above 100 nM; on human TLR7 (setting [1]), above 0.05 µM.

Take `CC1Cc2c(nn3c2CN(c2ccc(C#N)n4ncc(F)c24)C[C@H]3C)C(C)N1` (single isomer, unassigned) [Example I-88a]: the IC50 on human TLR8 was below 100 nM; on human TLR7 (setting [1]), below 0.05 µM.

Consider `CC1Cc2c(nn3c2CN(c2ccc(C#N)n4ncc(F)c24)C[C@H]3C)C(C)N1` (single isomer, unassigned) [Example I-88b], for which the IC50 on human TLR8 is above 100 nM; on human TLR7 (setting [1]), below 0.05 µM.

`C[C@@H]1CN(c2ccc(C#N)n3ncc(F)c23)Cc2c3c(nn21)CN(CC(=O)N1CC2(COC2)C1)[C@@H](C)C3` [Example I-112, 4-((4R, 9S) -4,9-dimethyl-8-(2-oxydioxy-2-(2-oxytrioxy-6-nitrous [3.3]helium-6-ethyl)ethyl) -3,4,7,8,9, 10-hydropyridine [3 ', 4 ': 3, 4]pyrazole [1,5-a]pyrazine-2 (1 H) - yl) -3-fluoropyrazole [1,5-a] pyridine-7-nitrile] returned an IC50 at human TLR7 (HEK-Blue hTLR7 IC50 (µM)) above 0.05 µM.

In turn, `C[C@@H]1CN(c2ccc(C#N)n3ncc(F)c23)Cc2c3c(nn21)CN(CC(=O)N1CCNCC1)[C@@H](C)C3` [Example I-113] yielded an IC50 against human TLR7 (HEK-Blue hTLR7 IC50 (µM)) below 0.05 µM.

Turning to `C[C@@H]1CN(c2ccc(C#N)n3ncc(F)c23)Cc2c3c(nn21)CN(Cc1ncco1)[C@@H](C)C3` [Example I-133, 4-((4R,9S)-4,9-dimethyl-8-(oxazol-2-ylmethyl)-3,4,7,8,9,10-hexahydropyrido[3',4':3,4]pyrazolo[1,5-a]pyrazin-2(1H)-yl)-3-fluoropyrazolo[1,5-a]pyridine-7-carbonitrile], at human TLR7 (setting [1]), the IC50 is above 0.05 µM.
